# Tested on: Hep3B cells
# Experiment: LLNs-mediated luciferase transfection assay (FLuc mRNA delivery)
# Format: cell-based, human
# Conditions: FLuc mRNA-loaded LLNs, 6 h transfection, normalized to TT3 (FIG. 1)
# Method: The synthesized compounds were formulated with 1,2-dioleoyl-sn-glycero-3-phosphoethanolamine (DOPE), cholesterol, and mRNA. The formulated nanoparticles were evaluated with a luciferase expression assay.
# Benzene-1,3,5-tricarbonyl trichloride (12) was reacted with Boc-protected diamine (13) in order to produce the intermediates (14) (Broaders, K. E. et. al. Chem. Commun. (Cambridge, U. K.) 2011, 47, 665-667). Deprotection of (14) gave compound (11), which underwent reductive amination to afford the desired products compounds #1 to #10 (See Dong, Y. et. al. Proc. Natl. Acad. Sci. U.S.A 2014, 111, 3955-3960). The structures of compounds #1 to #10 were confirmed by ^1H NMR spectroscopy (See FIGS. 12-21) and mass spectrometry (See FIGS. 2-11). […] Meanwhile, particle properties (including size, zeta potential, and entrapment efficiency) are measured using a dynamic light-scattering instrument and a ribogreen assay (Love Kevin, T. et. al. Proc. Nat. Acad. Sci. U.S.A 2010, 107, 1864-1869; Chen, D. et. al. J. Am. Chem. Soc. 2012, 134, 6948-6951).
# Next, delivery efficiency and cytotoxicity of compounds #1 to #10 (LLNs-FLuc mRNA) was evaluated in Hep3B cells, a human hepatoma cell line. […]
smiles,measurement,value
CCCCC(CCC)OC(=O)CCCCCCCCN(CCCCCCCCC(=O)OC(CCC)CCCC)CCCNC(=O)c1cc(C(=O)NCCCN(CCCCCCCCC(=O)OC(CCC)CCCC)CCCCCCCCC(=O)OC(CCC)CCCC)cc(C(=O)NCCCN(CCCCCCCCC(=O)OC(CCC)CCCC)CCCCCCCCC(=O)OC(CCC)CCCC)c1 (stereo not shown) [Compound 10],expression of the firefly luciferase,highest expression
